The source of these data is patent publication US20050197350A1, “Novel quinoline, tetrahydroquinazoline, and pyrimidine derivatives and methods of treatment related to the use thereof” (TAISHO PHARMACEUTICAL CO., LTD., priority 2003, published 2005).

The first experiment deals with MCH receptors. The experiment can be described thus: MCH receptor activity class (method not given).
Conditions: not given
As to `Cc1cc(N(C)C)nc(N[C@H]2CC[C@@H](NC(=O)c3ccc(OC(F)(F)F)cc3)CC2)n1` [Example 2569, N-(cis-4-{[4-(dimethylamino)-6-methylpyrimidin-2-yl]amino}cyclohexyl)-4-(trifluoromethoxy)benzamide], the class was 3.

Staying with this experiment, now noted: MCH receptor activity class 1-3 (percent of control at 10^-7 M or IC50).
For the molecule `CN(C)c1cc(N[C@H]2CC[C@@H](CNC(=O)Nc3ccc(F)cc3)CC2)nc2ccccc12` [compound 2364], the class is listed as 3 (Class 3 The value of percent of control at 10^−7 M was more than 60% or the value of IC50 was more than 200 nM.).
Same read-out and setting: next, `CN(C)c1ccnc(N[C@H]2CC[C@@H](NC(=S)Nc3ccc(Cl)cc3C(F)(F)F)CC2)n1` [compound 2339]: 3 (Class 3 The value of percent of control at 10^−7 M was more than 60% or the value of IC50 was more than 200 nM.).
Consider `CN(C)c1ccnc(N[C@H]2CC[C@@H](CNC(=O)Nc3ccc(F)cc3)CC2)n1` [compound 2410, N-[(cis-4-{[4-(dimethylamino)pyrimidin-2-yl]amino}cyclohexyl)methyl]-N′-(4-fluorophenyl)urea], for which the class was 2 (Class 2: The value of percent of control at 10^−7 M was from 40% to 60% or the value of IC′50 was from 50 nM to 200 nM.).

The same experiment, now with this note: MCH receptor; class by percent of control at 10^-7 M or IC50.
Consider `CSc1ncccc1C(=O)NC[C@H]1CC[C@@H](Nc2cc(N(C)C)c3ccccc3n2)CC1` [compound 169], for which the class is 3 (Class 3 The value of percent of control at 10^−7 M was more than 60% or the value of IC50 was more than 200 nM.).
On to `Cc1ccc(C(=O)NC[C@H]2CC[C@@H](Nc3cc(N(C)C)c4ccccc4n3)CC2)cc1` [compound 178], for which the class is reported as 3 (Class 3 The value of percent of control at 10^−7 M was more than 60% or the value of IC50 was more than 200 nM.).
As for `Cc1ccc(C(=O)N[C@H]2CC[C@@H](Nc3cc(N(C)C)c4ccccc4n3)CC2)cc1` [compound 51], the class is listed as 3 (Class 3 The value of percent of control at 10^−7 M was more than 60% or the value of IC50 was more than 200 nM.).
On to `COc1cccc(CC(=O)N[C@H]2CC[C@@H](Nc3cc(N(C)C)c4ccccc4n3)CC2)c1` [compound 67], for which the class is 3 (Class 3 The value of percent of control at 10^−7 M was more than 60% or the value of IC50 was more than 200 nM.).
With `CN(C)c1nc(N[C@H]2CC[C@@H](NC(=S)NCc3ccc(Cl)cc3Cl)CC2)nc2c1CCCC2` [compound 2032], the class is given as 3 (Class 3 The value of percent of control at 10^−7 M was more than 60% or the value of IC50 was more than 200 nM.).
As for `CN(C)c1nc(N[C@H]2CC[C@@H](NC(=S)Nc3ccc(/N=N/c4ccccc4)cc3)CC2)nc2c1CCCC2` [compound 2080], the class is given as 3 (Class 3 The value of percent of control at 10^−7 M was more than 60% or the value of IC50 was more than 200 nM.).
In the case of `CN(C)c1nc(N[C@H]2CC[C@@H](NC(=S)Nc3ccc(C(C)(C)C)cc3)CC2)nc2c1CCCC2` [compound 2065], the class is recorded as 3 (Class 3 The value of percent of control at 10^−7 M was more than 60% or the value of IC50 was more than 200 nM.).
With `CN(C)c1nc(N[C@H]2CC[C@@H](NC(=O)Nc3ccc4c(c3)C(F)(F)OC(F)(F)O4)CC2)nc2c1CCCC2` [compound 1913], the class is given as 3 (Class 3 The value of percent of control at 10^−7 M was more than 60% or the value of IC50 was more than 200 nM.).
For the molecule `CN(C)c1nc(N[C@H]2CC[C@@H](NC(=S)Nc3cccc(SC(F)(F)F)c3)CC2)nc2c1CCCC2` [compound 1980], the class is given as 3 (Class 3 The value of percent of control at 10^−7 M was more than 60% or the value of IC50 was more than 200 nM.).

The experiment is the same for the next values; noted with them: activity class 1-3: percent of control at 10^-7 M or IC50.
Consider `CN(C)c1cc(N[C@H]2CC[C@@H](NC(=O)OCC3c4ccccc4-c4ccccc43)CC2)nc2ccccc12` [compound 1557], for which the class is 3 (Class 3 The value of percent of control at 10^−7 M was more than 60% or the value of IC50 was more than 200 nM.).
As to `CN(C)c1nc(N[C@H]2CC[C@@H](NC(=O)NC3C[C@H]3c3ccccc3)CC2)nc2c1CCCC2` (some centres unmarked) [compound 1701], the class is reported as 3 (Class 3 The value of percent of control at 10^−7 M was more than 60% or the value of IC50 was more than 200 nM.).
For the molecule `Cc1cccc(C(C)(C)C)c1NC(=O)N[C@H]1CC[C@@H](Nc2nc3c(c(N(C)C)n2)CCCC3)CC1` [compound 1683, N-(2-tert-butyl-6-methylphenyl)-N′-(cis-4-{[4-(dimethylamino)-5,6,7,8-tetrahydroquinazolin-2-yl]amino}cyclohexyl)urea], the class was 2 (Class 2: The value of percent of control at 10^−7 M was from 40% to 60% or the value of IC′50 was from 50 nM to 200 nM.).
As for `CCCc1ccccc1NC(=O)N[C@H]1CC[C@@H](Nc2nc3c(c(N(C)C)n2)CCCC3)CC1` [compound 1682], the class was 3 (Class 3 The value of percent of control at 10^−7 M was more than 60% or the value of IC50 was more than 200 nM.).
For the molecule `COc1cc(COC(=O)NC2CCC(Nc3nccc(N(C)C)n3)CC2)c([N+](=O)[O-])cc1OC` (centres unmarked) [compound 1621, [4-(4-Dimethylamino-pyrimidin-2-ylamino)-cyclohexyl]-carbamid acid 4,5-dimethoxy-2-nitro-benzyl ester], the class is recorded as 3 (Class 3 The value of percent of control at 10^−7 M was more than 60% or the value of IC50 was more than 200 nM.).

The experiment is the same for the next values; noted with them: class 1-3 by percent of control at 10^-7 M or IC50.
In the case of `CN(C)c1nc(N[C@H]2CC[C@@H](NC(=O)c3ccc(F)cc3F)CC2)nc2c1CCCC2` [compound 562], the class was 3 (Class 3 The value of percent of control at 10^−7 M was more than 60% or the value of IC50 was more than 200 nM.).
Same read-out and setting: the result for `CN(C)c1nc(N[C@H]2CC[C@@H](NC(=O)Cc3ccccc3Br)CC2)nc2c1CCCC2` [compound 516] reads 3 (Class 3 The value of percent of control at 10^−7 M was more than 60% or the value of IC50 was more than 200 nM.).

The experiment is the same for the next values; noted with them: class by percent of control at 10^-7 M or IC50.
With `CN(C)c1cc(N[C@H]2CC[C@@H](CNC(=O)c3c(F)cccc3F)CC2)nc2ccccc12` [compound 229], the class was 3 (Class 3 The value of percent of control at 10^−7 M was more than 60% or the value of IC50 was more than 200 nM.).
`CN(C)c1ccnc(N[C@H]2CC[C@@H](CNC(=O)c3ccc(F)cc3Cl)CC2)n1` [compound 406]: the class is 3 (Class 3 The value of percent of control at 10^−7 M was more than 60% or the value of IC50 was more than 200 nM.).
In the case of `CN(C)c1ccnc(N[C@H]2CC[C@@H](NC(=O)CCC(=O)c3cccs3)CC2)n1` [compound 885], the class is 3 (Class 3 The value of percent of control at 10^−7 M was more than 60% or the value of IC50 was more than 200 nM.).
The same measure, in the same setting: the result for `CN(C)c1cc(N[C@H]2CC[C@@H](NC(=O)Nc3ccc(F)cc3F)CC2)nc2ccccc12` [compound 2091] reads 3 (Class 3 The value of percent of control at 10^−7 M was more than 60% or the value of IC50 was more than 200 nM.); that for `CCCCC/C(=C\c1ccccc1)CN[C@H]1CC[C@@H](Nc2nc3c(c(N(C)C)n2)CCCC3)CC1` [compound 1353], 3 (Class 3 The value of percent of control at 10^−7 M was more than 60% or the value of IC50 was more than 200 nM.); that for `COc1ccc(OC)c(CN[C@H]2CC[C@@H](Nc3nc4c(c(N(C)C)n3)CCCC4)CC2)c1` [compound 1329], 3 (Class 3 The value of percent of control at 10^−7 M was more than 60% or the value of IC50 was more than 200 nM.).
For the molecule `Cc1cccc(C(=O)NC[C@H]2CC[C@@H](Nc3cc(N(C)C)c4ccccc4n3)CC2)c1C` [compound 237], the class is listed as 3 (Class 3 The value of percent of control at 10^−7 M was more than 60% or the value of IC50 was more than 200 nM.).
`CN(C)c1ccnc(N[C@H]2CC[C@@H](NC(=O)c3cccc(I)c3)CC2)n1` [compound 276, N-(cis-4-{[4-(dimethylamino)pyrimidin-2-yl]amino}cyclohexyl)-3-iodobenzamide]: the class is given as 1 (Class 1: The value of percent of control at 10^−7 M was less than 40% or the value of IC50 was less than 50 nM.).
As for `CCc1ccccc1NC(=S)N[C@H]1CC[C@@H](Nc2nc3c(c(N(C)C)n2)CCCC3)CC1` [compound 1748], the class is given as 3 (Class 3 The value of percent of control at 10^−7 M was more than 60% or the value of IC50 was more than 200 nM.).
Consider `C[C@H](C(=O)N[C@H]1CC[C@@H](Nc2cc(N(C)C)c3ccccc3n2)CC1)c1ccc(-c2ccccc2)c(F)c1` [compound 740], for which the class was 3 (Class 3 The value of percent of control at 10^−7 M was more than 60% or the value of IC50 was more than 200 nM.).
`COc1cc(CNC[C@H]2CC[C@@H](Nc3nc4c(c(N(C)C)n3)CCCC4)CC2)cc(F)c1O` [compound 1441]: the class is given as 2 (Class 2: The value of percent of control at 10^−7 M was from 40% to 60% or the value of IC′50 was from 50 nM to 200 nM.).
As to `COc1ccc(NC(=O)N[C@H]2CC[C@@H](Nc3nccc(N(C)C)n3)CC2)cc1OC` [compound 2240], the class is given as 3 (Class 3 The value of percent of control at 10^−7 M was more than 60% or the value of IC50 was more than 200 nM.).
For `CN(C)c1ccnc(N[C@H]2CC[C@@H](NC(=O)c3cccc(C#N)c3)CC2)n1` [compound 247], the class is on record as 3 (Class 3 The value of percent of control at 10^−7 M was more than 60% or the value of IC50 was more than 200 nM.).

The experiment is the same for the next values; noted with them: class by percent of control at 10^−7 M or IC50.
As to `Cc1cc(N(C)C)nc(N[C@H]2CC[C@@H](NC(=O)c3cccc(OC(F)(F)F)c3)CC2)n1` [compound 2967, N-(cis-4-{[4-(dimethylamino)-6-methylpyrimidin-2-yl]amino}cyclohexyl)-3-(trifluoromethoxy)benzamide], the class is reported as 1 (Class 1: The value of percent of control at 10^−7 M was less than 40% or the value of IC50 was less than 50 nM.).
Regarding `Cc1cc(N(C)C)nc(N[C@H]2CC[C@@H](C(=O)N[C@H](C)c3ccc(Cl)cc3)CC2)n1` [compound 2805, cis-N-[(1R)-1-(4-chlorophenyl)ethyl]-4-{[4-(dimethylamino)-6-methylpyrimidin-2-yl]amino}cyclohexanecarboxamide], the class is given as 1 (Class 1: The value of percent of control at 10^−7 M was less than 40% or the value of IC50 was less than 50 nM.).
